Source: patent US11498933B2, “Prodrug compositions” (The University of Liverpool, priority 2017, dated 2022)

Columns and labels:
[1] = Half-life of emtricitabine amidine prodrug in phosphate buffer; format: physicochemical; details: Phosphate Buffer (100 mM, pH 7.4), 37° C.
Protocol: (§1) To evaluate the hydrolysis rates of emtricitabine amidine prodrugs, HPLC coupled with UV detection was used with the following method (0% to 100% acetonitrile in Et3NHOAc (50 mM, pH 8) gradient) over 10 minutes at a flow rate of 3 mL min^−1, held at 100% acetonitrile for 3 minutes, ramped down to 5% acetonitrile over 0.2 minutes and then held for 2.8 minutes. Normal human serum (Bioreclamation) or phosphate buffer (100 mM, pH 7.4) was pre-incubated at 37° C. for 5 minutes. Emtricitabine amidine compound 23 (1 mM) was then added and the reaction mixture was incubated at 37° C. […] The supernatant was injected onto a HPLC system for analysis, the resulting data can be seen illustrated in FIG. 13.

[2] = Half-life of emtricitabine amidine prodrug in human serum; format: in vitro ADME; details: normal human serum, 37° C.
Protocol: as §1

[3] = Kinetic analysis via UV in mixed pooled gender liver S9 (10.0 mg/mL); format: in vitro ADME, human
Protocol: Reaction mixtures containing Tris buffer (30 mM, pH 7.4) and mixed pooled gender liver S9 (10.0 mg/mL) were pre-incubated at 37° C. for 5 min. […] After incubation at 37° C., aliquots were taken at each time point and quenched in two volumes of ice-cold methanol. The quenched aliquots were then centrifuged at 14000 rpm for 5 minutes. The supernatant was diluted into Tris buffer (30 mM, pH 7.4) to yield concentrations appropriate for analysis and read spectrophotometrically monitoring a decrease in substrate at 305 nm.
A reaction mixture containing Tris buffer (30 mM, pH 7.4) and mixed pooled gender liver S9 (10.0 mg/mL) was pre-incubated at 37° C. for 5 minutes. The reaction was then initiated by the addition of emtricitabine trimethyl lock compound 25 (concentration of compound 25 ranging from 100 μM to 8 mM). After incubation at 37° C., aliquots were taken at each time point and quenched in two volumes of ice-cold methanol. The quenched aliquots were then centrifuged at 14000 rpm for 5 minutes. The supernatant was diluted into Tris buffer (30 mM, pH 7.4) to yield samples having concentrations appropriate for analysis and read spectrophotometrically monitoring a decrease in substrate at 312 nm.

[4] = Half-life measurements in human plasma (HPLC-UV); format: in vitro ADME; details: Human plasma, 37° C., read-out: Half-Life (converted)
Protocol: (§2) To evaluate the hydrolysis rates of emtricitabine compounds 9-16, HPLC coupled with UV detection was used with the following method (0% to 100% acetonitrile in Et3NHOAc (50 mM, pH 8) gradient) over 10 minutes at a flow rate of 3 mL min^−1, held at 100% acetonitrile for 3 minutes, ramped down to 5% acetonitrile over 0.2 minutes and then held for 2.8 minutes. Male human plasma (Bioreclamation) or female human skeletal muscle S9 (7.96 mg/mL, Bioreclamation) was pre-incubated at 37° C. for 5 minutes. Compounds 9-16 (1 mM) were added and the reaction was incubated at 37° C. […] The supernatant was diluted 10 fold into Tris buffer (30 mM, pH 7.4) and injected onto the HPLC for analysis.
To evaluate the hydrolysis rates of emtricitabine trimethyl lock prodrugs, HPLC coupled with UV detection was used with the following method (0% to 100% acetonitrile in Et3NHOAc (50 mM, pH 8) gradient) over 10 minutes at a flow rate of 3 mL min^−1, held at 100% acetonitrile for 3 minutes, ramped down to 5% acetonitrile over 0.2 minutes and then held for 2.8 minutes. Human plasma (Bioreclamation) or human skeletal muscle S9 (7.96 mg/mL, Bioreclamation) was pre-incubated at 37° C. for 5 minutes. Emtricitabine trimethyl lock compound 25 (1 mM) was added and the reaction was incubated at 37° C. […] The supernatant was diluted in Tris buffer (100 mM, pH 7.4) and injected onto the HPLC for analysis. […]

[5] = Half-life measurements in human skeletal muscle S9; format: in vitro ADME; details: Human muscle S9 (7.96 mg/mL), 37° C.
Protocol: as §2
To evaluate the hydrolysis rates of emtricitabine trimethyl lock prodrugs, HPLC coupled with UV detection was used with the following method (0% to 100% acetonitrile in Et3NHOAc (50 mM, pH 8) gradient) over 10 minutes at a flow rate of 3 mL min^−1, held at 100% acetonitrile for 3 minutes, ramped down to 5% acetonitrile over 0.2 minutes and then held for 2.8 minutes. Human plasma (Bioreclamation) or human skeletal muscle S9 (7.96 mg/mL, Bioreclamation) was pre-incubated at 37° C. for 5 minutes. Emtricitabine trimethyl lock compound 25 (1 mM) was added and the reaction was incubated at 37° C. […] The supernatant was diluted in Tris buffer (100 mM, pH 7.4) and injected onto the HPLC for analysis.

[6] = Kinetic analysis of trimethyl lock prodrug in mouse liver S9 via UV; format: in vitro ADME; details: mouse liver S9 1.0 mg/mL
Protocol: The reaction is then initiated by the addition of emtricitabine trimethyl lock compound 25 (concentration of compound 25 ranging from 600 μM to 6 mM). […] The supernatant was diluted into Tris buffer (30 mM, pH 7.4) to yield concentrations appropriate for analysis and read spectrophotometrically monitoring a decrease in substrate at 312 nm.

CD4+ T cells = assay: Viability staining (Zombie Red) in single-round infectivity assay
Protocol: Peripheral blood mononuclear cells were isolated from healthy blood donors using Hypaque-Ficoll gradient centrifugation. CD4+ T cells were selected by magnetic beads (Miltenyi) and activated using anti-CD3 and anti-CD28 antibodies. Activated cells were seeded onto a 96-well plate at a concentration of 1×10^5 cells/well in RPMI1640 supplemented with 10% FBS, cytokine-rich supernatant, and 50% heat-inactivated human serum. Test compounds were added at this step and maintained throughout the culture. Cells were incubated at 37° C. for 21 hours. Pseudotype (GFP-tagged) HIV was then added to the culture via spinoculation and incubated for 3 days. Cells were then washed and stained with Zombie Red viability stain. Infectivity was quantified using flow cytometry.

[7] = Stability in single-round infectivity assay well media; format: in vitro ADME; details: RPMI1640, 10% FBS, 50% heat-inactivated human serum, 37° C.
Protocol: Well media used in the single-round infectivity assays as described above, comprised of RPMI1640 medium supplemented with 10% FBS, cytokine-rich supernatant, 50% heat-inactivated human serum and HEPES buffer (12 mM). The emtricitabine test compounds were incubated in well media at 37° C. At various time points, aliquots were quenched in two volumes of ice-cold methanol. Quenched mixtures were then centrifuged at 14000 rpm for 5 minutes. The supernatant was diluted 10-fold into Tris buffer (30 mM, pH 7.4) and then analyzed via HPLC coupled with UV detection.
Stability studies indicate that both compounds 16 and 25 were hydrolyzed to the parent emtricitabine in a time-frame matching the time of pre-incubation in single-round infectivity assays. This is likely due to the presence of heat-inactivated serum still containing active esterases.

[8] = Prodrug hydrolysis in mouse liver S9; format: in vitro ADME; details: 1 mM, compared with human liver S9
Protocol: (§3) Reaction mixtures containing either mouse liver S9 (20.8 mg/mL), mouse plasma, rat liver S9 (1 mg/mL) and phosphate buffer (100 mM, pH 7.4), rat plasma, human liver S9 (1.0 mg/mL) and phosphate buffer (100 mM, pH 7.4) or human plasma were pre-incubated at 37° C. for 5 minutes. Reactions were then initiated by addition of compounds 4, 8 or 16 (1 mM in mouse, 0.5 mM in rat and human). After incubation at 37° C., aliquots are taken at each time point and quenched in two volumes of ice-cold methanol. The quenched aliquots were then centrifuged at 14000 rpm for 5 minutes. The supernatant was then diluted into phosphate buffer (30 mM, pH 7.4) to yield samples with concentrations suitable for analysis.

[9] = Prodrug hydrolysis in mouse plasma; format: in vitro ADME; details: 1 mM, compared with human plasma
Protocol: as §3

Row | SMILES | half-life at 1 mM [1] [h] | half-life at 1 mM [2] [h] | Intrinsic Clearance [3] [µL/min/mg] | Vmax [3] [nmol/h/mg] | Km ([3]; both sexes, human, pooled liver S9, pH 7.4, 100 μM to 8 mM, 312 nm) [µM] | half-life at 1 mM [4] [h] | half-life at 1 mM [5] [h] | Km ([6]; both sexes, pooled mouse liver S9, pH 7.4, 600 μM to 6 mM) [µM] | Intrinsic Clearance [6] [µL/min/mg] | Vmax [6] [nmol/h/mg] | toxicity on CD4+ T cells (viability staining) (CD4+ T cells) | half-life [7] [h] | hydrolysis rate in mouse liver S9 [8] | hydrolysis rate in mouse plasma [9]
1 | CN(C)/C=N\c1nc(=O)n([C@@H]2CS[C@H](CO)O2)cc1F [Compound 23, (Z)—N′-(5-fluoro-1-((2R,5S)-2-(hydroxymethyl)-1,3-oxathiolan-5-yl)-2-oxo-1,2-dihydropyrimidin-4-yl)-N,N-dimethylformimidamide] | 95 | 5.8 | – | – | – | – | – | – | – | – | – | – | – | –
2 | CC(=O)Oc1cc(C)cc(C)c1C(C)(C)CC(=O)Nc1nc(=O)n([C@@H]2CS[C@H](CO)O2)cc1F [Compound 25, 2-(4-((5-fluoro-1-((2R,5S)-2-(hydroxymethyl)-1,3-oxathiolan-5-yl)-2-oxo-1,2-dihydropyrimidin-4-yl)amino)-2-methyl-4-oxobutan-2-yl)-3,5-dimethylphenyl acetate] | – | – | 11.5 | 1659 | 2400 | 0.4 | 1 | 1600 | 138.3 | 13200 | little to no toxicity | 0.83 | – | –
3 | CCCCCCCCOC(=O)Nc1nc(=O)n([C@@H]2CS[C@H](CO)O2)cc1F [Compound 16, octyl (5-fluoro-1-((2R,5S)-2-(hydroxymethyl)-1,3-oxathiolan-5-yl)-2-oxo-1,2-dihydropyrimidin-4-yl)carbamate] | – | – | – | – | – | – | – | – | – | – | little to no toxicity | 18 | comparable in mouse and human liver S9 | dramatically enhanced relative to human plasma
